The nature of data set [1]: Food intake in vagotomized or capsaicin-treated rats, Example 3. In kind it is in vivo, rat. Particulars: rats; OEA 10, Wy-14643 40 mg kg^−1 i.p.
A short description of data set [2]: Conditioned taste aversion. Particulars: 20 mg per kg i.p. The class given is in vivo, rat. As for the experimental part:
Conditioned taste aversion. Rats were water-deprived for 24 h and then accustomed to drink from a graded bottle during a 30-min test period for four days. On day five, water was substituted with a 0.1% saccharin solution and, 30 min later, the animals received injections of vehicle, OEA (20 mg per kg) Or lithium chloride (0.4 M, 7.5 ml per kg). During the following two days, water consumption was recorded over 30-min test periods. The animals were then presented with water or saccharin, and drinking measured.

Data set [3] can be described thus: Plasma hormone levels by radioimmunoassay. The class given is in vivo, rat. Particulars: 20 mg per kg i.p. As for the experimental part: Blood chemistry. Plasma β-hydroxybutyrate and glycerol were measured using commercial kits (Sigma, St. Louis, Mo.). Plasma prolactin, corticosterone and luteinizing hormone were quantified by radioimmunoassay (Navarro, et al., Neuroreport, 8:491-496 (1997)).

Data set [4] in a line: Acute food intake in 24-h food-deprived rats, i.p. dosing. In kind it is in vivo, rat. As for the experimental part:
(§1) Feeding experiments. Acute experiments. Food intake was measured in 24-h food-deprived rats (Navarro, et al., J. Neurochem., 67:1982-1991 (1996)), administering drugs 15 min before food presentation. Subchronic experiments. Ad libitum fed rats received vehicle injections for three days. On day four, the animals were divided in two equal groups and gave them daily injections of vehicle or OEA (5 mg per kg at 1900 h) for 7 consecutive days, while measuring body weight, food intake and water intake.
The effects of systemically administered OEA or an OEA-like compound or OEA-like modulator on food intake in rats can be assessed using a 24 h fast. […] To define the selectivity of this response, various OEA analogs were evaluated for their ability to produce hypophagia.

A short description of data set [5]: Intracerebroventricular OEA on food intake in 24 h food-deprived rats. The class given is in vivo, rat. Particulars: for food intake 60 min / food intake 120 min / food intake 240 min: 24 h food-deprived rats. As for the experimental part:
as §1

Data set [6] has as its target T1, human PPARγ (Homo sapiens, UniProt P37231).
T1 construct: expressed in transfected cells; host or cells: HeLa (clonal reporter line HLR, stably transfected with pFA-PPARγ)
T1 sequence (P37231 238-503 limits assumed): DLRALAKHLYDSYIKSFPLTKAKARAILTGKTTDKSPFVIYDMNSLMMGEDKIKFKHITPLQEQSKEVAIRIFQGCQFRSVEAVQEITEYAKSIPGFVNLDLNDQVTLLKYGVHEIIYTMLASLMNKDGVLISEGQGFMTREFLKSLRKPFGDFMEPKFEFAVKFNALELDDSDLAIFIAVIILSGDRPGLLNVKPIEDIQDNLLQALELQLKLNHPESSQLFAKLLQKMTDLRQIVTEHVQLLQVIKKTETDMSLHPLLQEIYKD
The data set is described as follows: GAL4 chimeric receptor transactivation assay in HeLa cells, PPARγ. In kind it is cell-based. As for the experimental part:
Transactivator plasmids pFA-PPARα, pFA-PPARδ, pFA-PPARγ and pFA-RXR, which encoded for the […] Of hPPARα ? ((499-1404), hPPARδ (412-1320), hPPARγ (610-1434) and hRXR (402-1389) fused to the DNA-binding domain (residues 1-147) Of yeast GAL4 under control of the human cytomegalovirus (CMV) promoter were generated. The plasmids contained a neomycin-resistance gene to provide stable selection with G418 (200 μg-ml^−1; Calbiochem). The HeLa cells were cultured in Dulbecco's-modified Eagles's medium (DMEM) supplemented with fetal bovine serum (10%). The cells were transfected with Fugene 6 (3 μl, Roche) Containing the pFR-luc plasmid (1 μg, Stratagene). Eighteen hours following transfection, the culture media was replaced with supplemented DMEM containing hygromycin (100 μg-ml^−1, Calbiochem). After 4 weeks in culture, the surviving clones were isolated and analyzed by luciferase assay. […] The cells were cultured in supplemented DMEM containing hygromycin and G418. For transactivation assays, cells were seeded in 6-well plates (50,000 cells per well) and incubated for 7 hours in supplemented DMEM containing hygromycin and G418, plus appropriate concentrations of test compounds. Dual-luciferase reporter assay system (Promega) and an MLX Microtiter® plate luminometer (Dynex) were used to determine luciferase activity in cell lysates. […]

In data set [7] the test system is PPAR-α-regulated genes. The data set is described as follows: Real time quantitative PCR of gene expression in mouse intestine and liver. In kind it is in vivo. As for the experimental part:
Tissues were stored in RnaLater™ (Ambion), extracted total RNA with TRIzol™ (Invitrogen) and quantified it with Ribogreen™ (Molecular Probes). cDNA was synthesized by using SuperscriptII RNase H-reverse transcriptase (Invitrogen).
Reverse transcription of total RNA (2 μg) was performed using Oligo(dT)12-18 primer (0.2 μg) for 50 min at 42° C. Real Time Quantitative (RTQ) PCR was conducted using an ABI PRISM 7700 sequence detection system (Applied Biosystems). Primer/probe sets were designed using the Primer Express™ software and gene sequences available from the Genebank™ database. Primers and fluorogenic probes were synthesized by TIB (Adelphia). The primer/probe sequences for the mouse genes were:
RNA levels were normalized by using glyceraldehyde 3-phosphate dehydrogenase (GAPDH) as an internal standard. mRNA levels were measured by generating six-point serial standard curves using mouse total RNA. Estimates of relative mRNA abundance (in arbitrary units) were made by using the CT value (Schmittgen et al., 2000). Relative quantifications of RNAs of interest were made by using the 2^ΔCT formula, in which ΔCT was calculated by subtracting the CT value for GAPDH from the CT value for the gene of interest. This formula was validated for each primer/probe set by using six-point serial standard curves.

Regarding `CCCCCCCC/C=C\CCCCCCCC(=O)NCCO` [OEA, Z-2-hydroxyethyl octadec-9-enamide], in data set [1], the “food intake after vagotomy or capsaicin treatment” value is “no effect”. For the same molecule, in data set [2], the conditioned taste aversion result is listed as “little effect”. In addition, the “activity of the hypothalamus-pituitary-adrenal (HPA) axis” value in data set [3] was “did not alter”. Besides, the “food intake (hypophagia)” value in data set [4] (24-h food-deprived rats, i.p.) was “dose- and time-dependent suppression of food intake”. For the same molecule, in data set [4] (acute, 5 or 20 mg per kg), the water intake result is “did not alter”. Besides, the “half-maximally effective dose for hypophagia” value in data set [4] (i.p., rats) is 5 mg per kg. In data set [5] (OEA 0.4 μg per animal i.c.v.), the “food intake 60 min” value is reported as 4.8 ± 0.4, the “food intake 120 min” value came out at 6.6 ± 0.4 and the “food intake 240 min” value was found to be 8.4 ± 0.4. In data set [5] (OEA 2 μg per animal i.c.v.), the “food intake 60 min” value came out at 4.9 ± 0.4, the “food intake 120 min” value is reported as 6.6 ± 0.6 and the “food intake 240 min” value was 8.7 ± 0.5. In addition, in data set [5] (OEA 10 μg per animal i.c.v.), the “food intake 60 min” value is on record as 5.9 ± 0.2, the “food intake 120 min” value was found to be 8.1 ± 0.4 and the “food intake 240 min” value turned out to be 9.6 ± 0.7. For the same molecule, the “effect on food intake after direct injection into the brain ventricles” value in data set [5] (i.c.v.) was “ineffective”. In data set [6], the “effect on PPARγ” value was “no effect”. The “expression of PPAR-α-regulated genes” value in data set [7] (ileum) is “not and fail to induce expression”. Besides, the “expression of PPAR-α-regulated genes (PPAR-α, FAT/CD36, FATP1)” value in data set [7] (jejunum of wild-type mice, OEA or oleic acid 10, Wy-14643 30 mg kg^−1 i.p.) is given as “increased the expression”. In addition, the “expression of genes not under the control of PPAR-α (I-FABP, PPAR-β/δ, PPAR-γ)” value in data set [7] (jejunum, wild-type or PPAR-α-null mice) is “not affected”. In addition, the “gene expression in mice deficient in PPAR-α” value in data set [7] (jejunum, OEA 10, Wy-14643 30 mg kg^−1 i.p.) is “did not stimulate gene expression”. Besides, the “transcription of PPAR-α-regulated genes” value in data set [7] (liver of wild-type mice) was “initiated transcription”.

These data come from US20050101542A1, “Combination therapy for controlling appetites” (Regents of the University of California, priority 2002, published 2005).
